# According to patent US20250163066A1, “PROTACs of MALT1” (TEGID THERAPEUTICS, INC., priority 2022, published 2025):
# Biological target: MALT1 (Homo sapiens (Human), UniProt Q9UDY8)
# Test: MALT1 enzymatic activity inhibition (fluorescence, Ac-LRSR-AMC substrate)
# Assay type: biochemical
# Settings: recombinant MALT1 1.5 ng/μl, Ac-LRSR-AMC 1 μM
# Summary of the method: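 Recombinant human MALT1 (1.5 ng/μl final) preincubated 10 min at rt with compounds in 50 mM HEPES pH 7.2-7.4, 100 mM NaCl, 900 mM sodium citrate, 10 mM DTT; 1 μM Ac-LRSR-AMC then added. AMC fluorescence read at start and after 30 min 37 °C plus 30 min rt; difference gives signal, % inhibition fitted to IC50.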
# Sequence of MALT1 (Q9UDY8 whole entry): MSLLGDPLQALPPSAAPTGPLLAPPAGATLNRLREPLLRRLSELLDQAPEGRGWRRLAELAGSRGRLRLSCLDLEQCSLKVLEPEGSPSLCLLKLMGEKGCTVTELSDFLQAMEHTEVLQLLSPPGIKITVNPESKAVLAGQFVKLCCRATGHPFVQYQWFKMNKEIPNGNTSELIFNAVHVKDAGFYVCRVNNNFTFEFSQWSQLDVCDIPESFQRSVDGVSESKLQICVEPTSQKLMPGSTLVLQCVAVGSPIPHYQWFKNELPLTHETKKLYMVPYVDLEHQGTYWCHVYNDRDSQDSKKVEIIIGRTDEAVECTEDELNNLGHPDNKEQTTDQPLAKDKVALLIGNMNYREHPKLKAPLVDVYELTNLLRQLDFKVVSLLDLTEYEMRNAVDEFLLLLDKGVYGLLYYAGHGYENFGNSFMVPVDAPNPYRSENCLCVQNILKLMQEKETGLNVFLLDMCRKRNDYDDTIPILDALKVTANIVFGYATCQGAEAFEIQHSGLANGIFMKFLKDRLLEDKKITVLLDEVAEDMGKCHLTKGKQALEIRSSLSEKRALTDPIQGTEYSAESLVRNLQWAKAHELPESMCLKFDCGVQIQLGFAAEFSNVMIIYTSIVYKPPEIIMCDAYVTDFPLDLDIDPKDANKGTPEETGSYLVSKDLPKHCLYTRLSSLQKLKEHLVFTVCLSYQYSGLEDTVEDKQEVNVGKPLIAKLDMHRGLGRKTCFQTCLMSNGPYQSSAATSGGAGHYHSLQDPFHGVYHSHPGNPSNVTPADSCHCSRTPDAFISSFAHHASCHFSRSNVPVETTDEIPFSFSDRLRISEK
row,Compound,EC50
1,"Cc1cc(NC(=O)Nc2cnc3ccnn3c2C2CCCC2)cnc1-c1noc(CCCCC(=O)Nc2cccc(C3CCC(=O)NC3=O)c2)n1 (stereo not drawn) [Compound 100, 5-[3-[5-[(7-cyclopentylpyrazolo[1,5-a]pyrimidin-6-yl)carbamoylamino]-3-methyl-2-pyridyl]-1,2,4-oxadiazol-5-yl]-N-[3-(2,6-dioxo-3-piperidyl)phenyl]pentanamide]",0.2 to 0.5 µM
2,"Cc1cc(NC(=O)Nc2cnc3ccnn3c2C2CCCC2)cnc1-c1noc(CCCCC(=O)Nc2ccc(C3CCC(=O)NC3=O)cc2)n1 (stereo not drawn) [Compound 101, 5-[3-[5-[(7-cyclopentylpyrazolo[1,5-a]pyrimidin-6-yl)carbamoylamino]-3-methyl-2-pyridyl]-1,2,4-oxadiazol-5-yl]-N-[4-(2,6-dioxo-3-piperidyl)phenyl]pentanamide]",0.2 to 0.5 µM
3,"CCCCOP(=O)(OCCCC)OCN1C(=O)CCC(N2Cc3cc(N4CCN(C(=O)CCCCCc5nc(-c6ncc(NC(=O)Nc7cnc8ccnn8c7C7CCCC7)cc6Cl)no5)CC4)ccc3C2=O)C1=O (stereo not drawn) [Compound 103, dibutyl [3-[5-[4-[6-[3-[3-chloro-5-[(7-cyclopentylpyrazolo[1,5-a]pyrimidin-6-yl)carbamoylamino]-2-pyridyl]-1,2,4-oxadiazol-5-yl]hexanoyl]piperazin-1-yl]-1-oxo-isoindolin-2-yl]-2,6-dioxo-1-piperidyl]methyl phosphate]",> 5 µM
4,"O=C1CCC(N2Cc3cc(N4CCN(CCCCc5nc(-c6ncc(NC(=O)Nc7cnc8ccnn8c7C7CCCC7)cc6F)no5)CC4)ccc3C2=O)C(=O)N1 (stereo not drawn) [Compound 105, 1-(7-cyclopentylpyrazolo[1,5-a]pyrimidin-6-yl)-3-[6-[5-[4-[4-[2-(2,6-dioxo-3-piperidyl)-1-oxo-isoindolin-5-yl]piperazin-1-yl]butyl]-1,2,4-oxadiazol-3-yl]-5-fluoro-3-pyridyl]urea]",0.2 to 0.5 µM
5,"Cc1cc(NC(=O)Nc2cnc3ccnn3c2C2CCCCC2)cnc1-c1noc(CCCCC(=O)Nc2ccc3c(c2)CN(C2CCC(=O)NC2=O)C3=O)n1 (stereo not drawn) [Compound 125, 5-[3-[5-[(7-cyclohexylpyrazolo[1,5-a]pyrimidin-6-yl)carbamoylamino]-3-methyl-2-pyridyl]-1,2,4-oxadiazol-5-yl]-N-[2-(2,6-dioxo-3-piperidyl)-1-oxo-isoindolin-5-yl]pentanamide]",0.5 to 1 µM
6,"Cc1cc(NC(=O)Nc2cnc3ccnn3c2C2CCCCC2)cnc1-c1noc(CCCC(=O)N2CCN(c3ccc4c(c3)CN(C3CCC(=O)NC3=O)C4=O)CC2)n1 (stereo not drawn) [Compound 126, 1-(7-cyclohexylpyrazolo[1,5-a]pyrimidin-6-yl)-3-[6-[5-[4-[4-[2-(2,6-dioxo-3-piperidyl)-1-oxo-isoindolin-5-yl]piperazin-1-yl]-4-oxo-butyl]-1,2,4-oxadiazol-3-yl]-5-methyl-3-pyridyl]urea]",0.5 to 1 µM
7,"Cc1cc(NC(=O)Nc2cnc3ccnn3c2C(C)(C)C)cnc1-c1noc(CCCCC(=O)N2CCN(c3ccc4c(c3)CN(C3CCC(=O)NC3=O)C4=O)CC2)n1 (stereo not drawn) [Compound 127, 1-(7-tert-butylpyrazolo[1,5-a]pyrimidin-6-yl)-3-[6-[5-[5-[4-[2-(2,6-dioxo-3-piperidyl)-1-oxo-isoindolin-5-yl]piperazin-1-yl]-5-oxo-pentyl]-1,2,4-oxadiazol-3-yl]-5-methyl-3-pyridyl]urea]",1 to 5 µM
8,"O=C1CCC(N2Cc3cc(N4CCN(C(=O)CCCCCc5nnc(-c6ccc(NC(=O)Nc7cnc8ccnn8c7C7CCCC7)cn6)s5)CC4)ccc3C2=O)C(=O)N1 (stereo not drawn) [Compound 128, 1-(7-cyclopentylpyrazolo[1,5-a]pyrimidin-6-yl)-3-[6-[5-[6-[4-[2-(2,6-dioxo-3-piperidyl)-1-oxo-isoindolin-5-yl]piperazin-1-yl]-6-oxo-hexyl]-1,3,4-thiadiazol-2-yl]-3-pyridyl]urea]",1 to 5 µM
9,"CC(C)c1c(NC(=O)Nc2ccc(-c3nnc(CCCCCC(=O)N4CCN(c5ccc6c(c5)CN(C5CCC(=O)NC5=O)C6=O)CC4)s3)nc2)cnc2ccnn12 (stereo not drawn) [Compound 129, 1-[6-[5-[6-[4-[2-(2,6-dioxo-3-piperidyl)-1-oxo-isoindolin-5-yl]piperazin-1-yl]-6-oxo-hexyl]-1,3,4-thiadiazol-2-yl]-3-pyridyl]-3-(7-isopropylpyrazolo[1,5-a]pyrimidin-6-yl)urea]",1 to 5 µM

# Continued, values first:
row,EC50,Compound
1,≤ 0.2 µM,"O=C1CCC(N2Cc3cc(N4CCN(CCCCCc5nc(-c6ncc(NC(=O)Nc7cnc8ccnn8c7C7CCCCC7)cc6Cl)no5)CC4)ccc3C2=O)C(=O)N1 (stereo not drawn) [Compound 99, 1-[5-chloro-6-[5-[5-[4-[2-(2,6-dioxo-3-piperidyl)-1-oxo-isoindolin-5-yl]piperazin-1-yl]pentyl]-1,2,4-oxadiazol-3-yl]-3-pyridyl]-3-(7-cyclohexylpyrazolo[1,5-a]pyrimidin-6-yl)urea]"
2,≤ 0.2 µM,"Cc1cc(NC(=O)Nc2cnc3ccnn3c2C2CCCC2)cnc1-c1noc(CCCCCC(=O)N2CCN(c3ccc4c(c3)CN(C3CCC(=O)N(COC(=O)C(C)(C)C)C3=O)C4=O)CC2)n1 (stereo not drawn) [Compound 102, [3-[5-[4-[6-[3-[5-[(7-cyclopentylpyrazolo[1,5-a]pyrimidin-6-yl)carbamoylamino]-3-methyl-2-pyridyl]-1,2,4-oxadiazol-5-yl]hexanoyl]piperazin-1-yl]-1-oxo-isoindolin-2-yl]-2,6-dioxo-1-piperidyl]methyl 2,2-dimethylpropanoate]"
3,≤ 0.2 µM,"Cc1cc(NC(=O)Nc2cnc3ccnn3c2C2CCC2)cnc1-c1noc(CCCCCC(=O)N2CCN(c3ccc4c(c3)CN(C3CCC(=O)NC3=O)C4=O)CC2)n1 (stereo not drawn) [Compound 114, 1-(7-cyclobutylpyrazolo[1,5-a]pyrimidin-6-yl)-3-[6-[5-[6-[4-[2-(2,6-dioxo-3-piperidyl)-1-oxo-isoindolin-5-yl]piperazin-1-yl]-6-oxo-hexyl]-1,2,4-oxadiazol-3-yl]-5-methyl-3-pyridyl]urea]"
4,≤ 0.2 µM,"Cc1cc(NC(=O)Nc2cnc3ccnn3c2C2CCC2)cnc1-c1noc(CCCCCCN2CCN(c3ccc4c(c3)CN(C3CCC(=O)NC3=O)C4=O)CC2)n1 (stereo not drawn) [Compound 115, 1-(7-cyclobutylpyrazolo[1,5-a]pyrimidin-6-yl)-3-[6-[5-[6-[4-[2-(2,6-dioxo-3-piperidyl)-1-oxo-isoindolin-5-yl]piperazin-1-yl]hexyl]-1,2,4-oxadiazol-3-yl]-5-methyl-3-pyridyl]urea]"
5,≤ 0.2 µM,"Cc1cc(NC(=O)Nc2cnc3ccnn3c2C(C)C)cnc1-c1noc(CCCCC(=O)N2CCN(c3ccc4c(c3)CN(C3CCC(=O)N(COC(=O)C(C)(C)C)C3=O)C4=O)CC2)n1 (stereo not drawn) [Compound 130, [3-[5-[4-[5-[3-[5-[(7-isopropylpyrazolo[1,5-a]pyrimidin-6-yl)carbamoylamino]-3-methyl-2-pyridyl]-1,2,4-oxadiazol-5-yl]pentanoyl]piperazin-1-yl]-1-oxo-isoindolin-2-yl]-2,6-dioxo-1-piperidyl]methyl 2,2-dimethylpropanoate]"
6,≤ 0.2 µM,"Cc1cc(NC(=O)Nc2cnc3ccnn3c2C(C)C)cnc1-c1noc(CCCCCC(=O)N2CCN(c3ccc4c(c3)CN(C3CCC(=O)N(COC(=O)C(C)(C)C)C3=O)C4=O)CC2)n1 (stereo not drawn) [Compound 131, [3-[5-[4-[6-[3-[5-[(7-isopropylpyrazolo[1,5-a]pyrimidin-6-yl)carbamoylamino]-3-methyl-2-pyridyl]-1,2,4-oxadiazol-5-yl]hexanoyl]piperazin-1-yl]-1-oxo-isoindolin-2-yl]-2,6-dioxo-1-piperidyl]methyl 2,2-dimethylpropanoate]"
